Measurements as given in patent US20260284208A1, “SYSTEM” (Oxford University Innovation Limited, priority 2023, published 2026).

System: library of 8,380 IKZF3 degrons (ZF-eGFP/mCherry reporter) in Jurkat cells
Experiment: Pooled library screen (FACS, NGS, limma voom LogFC of positive vs negative read counts)
Type: cell-based, human
Outline: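 Degron enrichment was scored by amplicon NGS of gDNA from GFP-low versus other mCherry+ cells, at >600× coverage across three independent transductions. Sorting followed 18 h exposure at 37 °C to thalidomide analog or DMSO, which set the gate; dead cells were excluded with DAPI. Single-copy integration used MOI <0.3.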

## O=C1CCC(N2C(=O)c3ccc(N4CCOCC4)cc3C2=O)C(=O)N1 (centres unmarked) [B03]
Degron-ID 115, SEQ ID NO 3968, 46F_47A_49E_50V_52G_53A_54S_55F_67L
  B03_logFC: 2.732
Degron-ID 120, SEQ ID NO 4031, 46F_47A_49N_50I_52G_53A_54A_55F_67L
  B03_logFC: 2.638
Degron-ID 315, SEQ ID NO 3989, 46F_47C_49E_50I_52G_53A_54S_55F_67L
  B03_logFC: 2.703
Degron-ID 372, SEQ ID NO 3966, 46F_47C_49N_50I_52G_53A_54P_55F_67L
  B03_logFC: 2.733
Degron-ID 433, SEQ ID NO 4021, 46F_47C_49P_50I_52G_53A_54Q_55F_67L
  B03_logFC: 2.656
Degron-ID 434, SEQ ID NO 3957, 46F_47C_49P_50I_52G_53A_54R_55F_67L
  B03_logFC: 2.746
Degron-ID 435, SEQ ID NO 3984, 46F_47C_49P_50I_52G_53A_54S_55F_67L
  B03_logFC: 2.71
Degron-ID 977, SEQ ID NO 4017, 46F_47F_49D_50I_52G_53A_54V_55F_67L
  B03_logFC: 2.662
Degron-ID 1011, SEQ ID NO 3988, 46F_47F_49D_50V_52G_53A_54N_55F_67L
  B03_logFC: 2.704
Degron-ID 1015, SEQ ID NO 3971, 46F_47F_49D_50V_52G_53A_54S_55F_67L
  B03_logFC: 2.728
Degron-ID 1065, SEQ ID NO 3981, 46F_47F_49E_50V_52G_53A_54G_55F_67L
  B03_logFC: 2.716
Degron-ID 1080, SEQ ID NO 4003, 46F_47F_49N_50I_52G_53A_54A_55F_67L
  B03_logFC: 2.68
Degron-ID 1081, SEQ ID NO 4001, 46F_47F_49N_50I_52G_53A_54C_55F_67L
  B03_logFC: 2.686
Degron-ID 1097, SEQ ID NO 3956, 46F_47F_49N_50I_52G_53A_54V_55F_67L
  B03_logFC: 2.747
Degron-ID 1183, SEQ ID NO 4013, 46F_47F_49P_50V_52G_53A_54E_55F_67L
  B03_logFC: 2.668
Degron-ID 1188, SEQ ID NO 4025, 46F_47F_49P_50V_52G_53A_54K_55F_67L
  B03_logFC: 2.644
Degron-ID 1197, SEQ ID NO 3982, 46F_47F_49P_50V_52G_53A_54V_55F_67L
  B03_logFC: 2.716
Degron-ID 1267, SEQ ID NO 3977, 46F_47G_49E_50I_52G_53A_54I_55F_67L
  B03_logFC: 2.719
Degron-ID 1273, SEQ ID NO 4024, 46F_47G_49E_50I_52G_53A_54Q_55F_67L
  B03_logFC: 2.644
Degron-ID 1314, SEQ ID NO 3964, 46F_47G_49E_50V_52G_53A_54R_55F_67L
  B03_logFC: 2.737
Degron-ID 1393, SEQ ID NO 4023, 46F_47G_49P_50I_52G_53A_54Q_55F_67L
  B03_logFC: 2.648
Degron-ID 1433, SEQ ID NO 4022, 46F_47G_49P_50V_52G_53A_54Q_55F_67L
  B03_logFC: 2.653
Degron-ID 1513, SEQ ID NO 4030, 46F_47H_49E_50I_52G_53A_54Q_55F_67L
  B03_logFC: 2.639
Degron-ID 1515, SEQ ID NO 4006, 46F_47H_49E_50I_52G_53A_54S_55F_67L
  B03_logFC: 2.675
Degron-ID 1555, SEQ ID NO 4029, 46F_47H_49E_50V_52G_53A_54S_55F_67L
  B03_logFC: 2.639
Degron-ID 1621, SEQ ID NO 4027, 46F_47H_49P_50I_52G_53A_54C_55F_67L
  B03_logFC: 2.643
Degron-ID 1751, SEQ ID NO 3952, 46F_47I_49E_50I_52G_53A_54N_55F_67L
  B03_logFC: 2.753
Degron-ID 1754, SEQ ID NO 4020, 46F_47I_49E_50I_52G_53A_54R_55F_67L
  B03_logFC: 2.656
Degron-ID 1755, SEQ ID NO 3970, 46F_47I_49E_50I_52G_53A_54S_55F_67L
  B03_logFC: 2.728
Degron-ID 1785, SEQ ID NO 4016, 46F_47I_49E_50V_52G_53A_54G_55F_67L
  B03_logFC: 2.664
Degron-ID 1865, SEQ ID NO 4014, 46F_47I_49P_50I_52G_53A_54G_55F_67L
  B03_logFC: 2.667
Degron-ID 1871, SEQ ID NO 3960, 46F_47I_49P_50I_52G_53A_54N_55F_67L
  B03_logFC: 2.742
Degron-ID 1913, SEQ ID NO 3962, 46F_47I_49P_50V_52G_53A_54Q_55F_67L
  B03_logFC: 2.739
Degron-ID 1915, SEQ ID NO 3965, 46F_47I_49P_50V_52G_53A_54S_55F_67L
  B03_logFC: 2.736
Degron-ID 2392, SEQ ID NO 4011, 46F_47L_49P_50V_52G_53A_54P_55F_67L
  B03_logFC: 2.671
Degron-ID 2957, SEQ ID NO 3986, 46F_47Q_49E_50I_52G_53A_54V_55F_67L
  B03_logFC: 2.708
Degron-ID 2981, SEQ ID NO 4000, 46F_47Q_49E_50V_52G_53A_54C_55F_67L
  B03_logFC: 2.687
Degron-ID 2996, SEQ ID NO 4026, 46F_47Q_49E_50V_52G_53A_54T_55F_67L
  B03_logFC: 2.643
Degron-ID 2997, SEQ ID NO 3951, 46F_47Q_49E_50V_52G_53A_54V_55F_67L
  B03_logFC: 2.756
Degron-ID 3073, SEQ ID NO 3979, 46F_47Q_49P_50I_52G_53A_54Q_55F_67L
  B03_logFC: 2.718
Degron-ID 3076, SEQ ID NO 3959, 46F_47Q_49P_50I_52G_53A_54T_55F_67L
  B03_logFC: 2.742
Degron-ID 3115, SEQ ID NO 3978, 46F_47Q_49P_50V_52G_53A_54S_55F_67L
  B03_logFC: 2.718
Degron-ID 3432, SEQ ID NO 3998, 46F_47S_49E_50I_52G_53A_54P_55F_67L
  B03_logFC: 2.688
Degron-ID 3540, SEQ ID NO 3999, 46F_47S_49P_50I_52G_53A_54A_55F_67L
  B03_logFC: 2.688
Degron-ID 3791, SEQ ID NO 4035, 46F_47T_49P_50I_52G_53A_54N_55F_67L
  B03_logFC: 2.632
Degron-ID 3833, SEQ ID NO 4034, 46F_47T_49P_50V_52G_53A_54Q_55F_67L
  B03_logFC: 2.635
Degron-ID 3835, SEQ ID NO 3974, 46F_47T_49P_50V_52G_53A_54S_55F_67L
  B03_logFC: 2.722
Degron-ID 3953, SEQ ID NO 3961, 46F_47V_49E_50V_52G_53A_54Q_55F_67L
  B03_logFC: 2.742
Degron-ID 4065, SEQ ID NO 4015, 46F_47V_49P_50V_52G_53A_54G_55F_67L
  B03_logFC: 2.665
Degron-ID 4087, SEQ ID NO 3963, 46F_47W_49D_50I_52G_53A_54I_55F_67L
  B03_logFC: 2.738
